Measurements: patent EP0923943A1, “MICELLAR AQUEOUS COMPOSITION AND METHOD FOR SOLUBILIZING HYDROPHOBIC DRUG” (TAISHO PHARMACEUTICAL CO. LTD, priority 1996, dated 1997)
In brackets after ≈: the same amount, converted by molar mass.

Test: Saturation solubility of taxol
Format: physicochemical
Conditions: pH 7.4, aqueous buffer

`CC(=O)O[C@H]1C(=O)[C@@]2(C)[C@H]([C@H](OC(=O)c3ccccc3)[C@]3(O)C[C@H](OC(=O)[C@H](O)[C@@H](NC(=O)c4ccccc4)c4ccccc4)C(C)=C1C3(C)C)[C@]1(OC(C)=O)CO[C@@H]1C[C@@H]2O` [taxol] showed a solubility of 0.32 µg/mL (≈ 0.375 µM).
